From US8729269B2, “Substituted piperidino phenyloxazolidinones having antimicrobial activity with improved in vivo efficacy” (Wockhardt Limited, priority 2003, dated 2014)
In brackets after ≈: the same amount, converted by molar mass.

Assays:
[1] = test system: Streptococcus pneumoniae 49619 (SPN 49619); experiment: Minimum Inhibitory Concentration (MIC) determination, agar with 5% sheep blood; assay type: cell-based; conditions: Mueller Hinton agar containing 5% sheep blood
Experimental: (§1) Overnight grown cultures of Methicilin resistant Staphylococcus aureus 32 (MRSA 32), Methicilin resistant Staphylococcus epidermidis 118 (MRSE 118), Vancomycin resistant enterococci 303 (VRE 303) in Tryptic Soya broth were diluted in Mueller Hinton Broth to give optical density matching with MacFarland tube 0.5 standard. Cultures were further diluted 1:10 in Mueller Hinton broth. Using Denley's multipoint inoculator, 10^4 cells were deposited on Mueller Hinton agar (Difco) containing range of 2 fold dilutions of test compounds. These plates were incubated for 24 hrs at 35° C. and MIC results recorded. MIC is defined as minimum drug concentration that inhibits test organisms. For determining MIC of test compounds against Streptococcus pneumoniae 49619 (SPN 49619) and Streptococcus pyogenes 801 (SPY 801), Mueller Hinton agar containing 5% sheep blood was employed.

[2] = test system: Streptococcus pyogenes 801 (SPY 801); experiment: as above; assay type: cell-based; conditions: Mueller Hinton agar containing 5% sheep blood
Experimental: as §1

[3] = test system: methicillin resistant Staphylococcus aureus strain MRSA 32; experiment: Murine Assay Procedure (in vivo efficacy, MRSA 32 infection); conditions: swiss mice infected intraperitoneally with MRSA 32, oral gavage 1 h after infection, repeat dose 3 hrs later, percentage survival on Day 7
Experimental: Oxazolidinone new chemical entities (NCEs) were evaluated for their in vivo efficacy in a murine infection caused by multi-drug resistant, methicillin resistant Staphylococcus aureus strain, referred to as MRSA 32, a clinical isolate obtained from a hospitalized patient. The procedure used for the murine assay is as follows:
Four weeks old swiss mice of 18-22 gm body weight were infected with MRSA 32 strain suspended in 5% Hog gastric mucin. The infecting dose of bacteria was set at 1-2×10^8 CFU/animal. The infecting dose was administered in 0.5 ml volume injected into peritonial cavity of mice. The treatment with oxazolidinone NCEs was started one hour after infection by administering 100-200 μl of the suspensions of oxazolidinone compounds in 5% Tween 80 by oral gavage. A repeat dose was similarly administered 3 hrs later. Each oxazolidinone NCE was tested at 2-3 different dosages in the range of 2.5 mg/kg to 20 mg/kg. In each dose group 6 mice were included. As an infection control group 12 mice were infected with MRSA 32 strain without giving any treatment. For compounds affording protection of MRSA infected mice, ED50 dosages were calculated on the basis of percentage survival on Day 7 after infection.

[4] = test system: Methicilin resistant Staphylococcus aureus 32 (MRSA 32); experiment: Minimum Inhibitory Concentration (MIC) determination, agar dilution; assay type: cell-based; conditions: Mueller Hinton agar, 24 hrs at 35° C.
Experimental: as §1

[5] = test system: Vancomycin resistant enterococci 303 (VRE 303); experiment: as above; assay type: cell-based; conditions: Enterococcus, Mueller Hinton agar, 24 hrs at 35° C.
Experimental: as §1

[6] = test system: Methicilin resistant Staphylococcus epidermidis 118 (MRSE 118); experiment: as above; assay type: cell-based; conditions: Mueller Hinton agar, 24 hrs at 35° C.
Experimental: as §1

SMILES | MIC [1] | MIC [2] | MIC [4] | MIC [5] | MIC [6] | ED50 [3]
CS(=O)(=O)OC[C@H]1CN(c2ccc(N3CCC4(CC3)COCO4)c(F)c2)C(=O)O1 [Example 129, (R)—N-{3-[4-(1,3-dioxa-8-aza-spiro[4.5]dec-8-yl)-3-fluorophenyl]-2-oxo-oxazolidin-5-ylmethyl}-methanesulfonate] | 8 µg/mL (≈ 18.6 µM) | 8 µg/mL (≈ 18.6 µM) | 8 µg/mL (≈ 18.6 µM) | 16 µg/mL (≈ 37.2 µM) | 4 µg/mL (≈ 9.29 µM) | 5 mg/kg
CC(=O)NC[C@H]1CN(c2cc(F)c(N3CCC4(CC3)OCCO4)c(F)c2)C(=O)O1 [Example 130, (S)—N-{3-[4-(1,4-dioxa-8-aza-spiro[4.5]dec-8-yl)-3,5-difluorophenyl]-2-oxo-oxazolidin-5-ylmethyl}-acetamide] | 2 µg/mL (≈ 4.86 µM) | 2 µg/mL (≈ 4.86 µM) | 4 µg/mL (≈ 9.72 µM) | 4 µg/mL (≈ 9.72 µM) | 2 µg/mL (≈ 4.86 µM) | 5 mg/kg
CC(=O)NC[C@H]1CN(c2ccc(N3CCOCC3)c(F)c2)C(=O)O1 [Linezolid, reference compound] | 2 µg/mL (≈ 5.93 µM) | 2 µg/mL (≈ 5.93 µM) | 2 µg/mL (≈ 5.93 µM) | 2 µg/mL (≈ 5.93 µM) | 1 µg/mL (≈ 2.96 µM) | 5 mg/kg
COCC1(F)CCN(c2ccc(N3C[C@H](CNC(C)=O)OC3=O)cc2F)CC1 [Example 10, (S)—N-{3-[4-(4-Fluoro-4-methoxymethylpiperidin-1-yl)-3-fluorophenyl]-2-oxo-oxazolidin-5-ylmethyl}-acetamide] | 2 µg/mL (≈ 5.03 µM) | 2 µg/mL (≈ 5.03 µM) | 2 µg/mL (≈ 5.03 µM) | 1 µg/mL (≈ 2.52 µM) | 1 µg/mL (≈ 2.52 µM) | 5 mg/kg

The next lines start with results.

MIC [1] | MIC [2] | MIC [4] | MIC [5] | MIC [6] | SMILES | ED50 [3]
> 16 µg/mL | > 16 µg/mL | 8 µg/mL (≈ 21.9 µM) | > 32 µg/mL | > 32 µg/mL | CC(=O)NC[C@H]1CN(c2ccc(N3CCC(C)(O)CC3)c(F)c2)C(=O)O1 [Example 17, (S)—N-{3-[4-(4-Methyl-4-hydroxypiperidin-1-yl)-3-fluorophenyl]-2-oxo-oxazolidin-5-ylmethyl}-acetamide] | 10 mg/kg
4 µg/mL (≈ 8.92 µM) | 4 µg/mL (≈ 8.92 µM) | 4 µg/mL (≈ 8.92 µM) | 4 µg/mL (≈ 8.92 µM) | 2 µg/mL (≈ 4.46 µM) | CS(=O)(=O)OC[C@H]1CN(c2cc(F)c(N3CCC4(CC3)OCCO4)c(F)c2)C(=O)O1 [Example 146, (R)—N-{3-[4-(1,4-dioxa-8-aza-spiro[4.5]dec-8-yl)-3,5-difluorophenyl]-2-oxo-oxazolidin-5-ylmethyl}-methanesulfonate] | 2.5 mg/kg
0.5 µg/mL (≈ 1.24 µM) | 2 µg/mL (≈ 4.95 µM) | 0.5 µg/mL (≈ 1.24 µM) | 1 µg/mL (≈ 2.47 µM) | 0.25 µg/mL (≈ 0.618 µM) | CS(=O)(=O)OC[C@H]1CN(c2cc(F)c(N3CCC(=O)CC3)c(F)c2)C(=O)O1 [Example 169, (R)—N-{3-[4-(4-oxo-piperidin-1-yl)-3,5-difluorophenyl]-2-oxo-oxazolidin-5-ylmethyl}-methanesulfonate] | 10 mg/kg
4 µg/mL (≈ 10.6 µM) | 8 µg/mL (≈ 21.3 µM) | 4 µg/mL (≈ 10.6 µM) | 4 µg/mL (≈ 10.6 µM) | 0.5 µg/mL (≈ 1.33 µM) | CC(=O)NC[C@H]1CN(c2ccc(N3CCC(O)(C#N)CC3)c(F)c2)C(=O)O1 [Example 19, (S)—N-{3-[4-(4-Cyano-4-hydroxypiperidin-1-yl)-3-fluorophenyl]-2-oxo-oxazolidin-5-ylmethyl}-acetamide] | 5 mg/kg
2 µg/mL (≈ 4.86 µM) | 4 µg/mL (≈ 9.72 µM) | 1 µg/mL (≈ 2.43 µM) | 4 µg/mL (≈ 9.72 µM) | 0.5 µg/mL (≈ 1.22 µM) | CCOCC1(F)CCN(c2ccc(N3C[C@H](CNC(C)=O)OC3=O)cc2F)CC1 [Example 11, (S)—N-{3-[4-(4-Fluoro-4-ethoxymethylpiperidin-1-yl)-3-fluorophenyl]-2-oxo-oxazolidin-5-ylmethyl}-acetamide] | 10 mg/kg
4 µg/mL | 4 µg/mL | 4 µg/mL | 8 µg/mL | 2 µg/mL | CC(=O)NC[C@H]1CN(c2ccc(N3CCC4(CC3)CC4C#N)cc2)C(=O)O1 (mixture of isomers) [Example 96, (1RS,5S)—N-{3-[4-(1-cyano-6-aza-spiro[2.5]oct-6-yl)-phenyl]-2-oxo-oxazolidin-5-ylmethyl}-acetamide] | 5 mg/kg
